Values belong to the molecule of their own block, whether it stands above or below them.
Tests used:
[1] = molecular target: T1, CYP1A in mouse liver microsomes (MLM) (Mus musculus, UniProt P00186); assay: Inhibition of NCMN-O-demethylation by CYP inhibitors in mouse liver microsomes; conditions: MLM; 10 µM NCMN; 100 µM furafylline, 10 µM sulfaphenazole, 200 µM troleandomycin, 500 µM 1-ABT
T1 sequence (P00186 2-513): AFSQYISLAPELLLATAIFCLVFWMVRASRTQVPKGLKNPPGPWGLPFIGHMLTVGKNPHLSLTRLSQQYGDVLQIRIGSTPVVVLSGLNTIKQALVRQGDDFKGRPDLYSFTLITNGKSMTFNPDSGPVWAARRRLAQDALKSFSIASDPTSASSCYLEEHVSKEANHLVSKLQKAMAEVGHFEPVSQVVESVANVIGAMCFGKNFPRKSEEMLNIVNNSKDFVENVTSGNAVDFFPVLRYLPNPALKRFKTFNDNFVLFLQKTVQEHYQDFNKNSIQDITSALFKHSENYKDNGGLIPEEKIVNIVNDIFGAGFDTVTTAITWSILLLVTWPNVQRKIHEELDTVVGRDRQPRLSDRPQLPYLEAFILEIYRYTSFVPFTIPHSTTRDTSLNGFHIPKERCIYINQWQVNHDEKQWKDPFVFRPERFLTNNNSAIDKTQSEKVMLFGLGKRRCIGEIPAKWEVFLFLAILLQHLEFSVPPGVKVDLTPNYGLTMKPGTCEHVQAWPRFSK

[2] = test system: CYP1A in cynomolgus monkey liver microsomes (CyLM); assay: Inhibition of NCMN-O-demethylation by CYP inhibitors in cynomolgus monkey liver microsomes; conditions: CyLM; 10 µM NCMN; 100 µM furafylline, 10 µM sulfaphenazole, 200 µM troleandomycin, 500 µM 1-ABT
[3] = test system: CYP1A in rat liver microsomes (RLM); assay: Inhibition of NCMN-O-demethylation by CYP inhibitors in rat liver microsomes; conditions: RLM; 10 µM NCMN; 100 µM furafylline, 10 µM sulfaphenazole, 200 µM troleandomycin, 500 µM 1-ABT
[4] = molecular target: T2, CYP1A in beagle dog liver microsomes (DLM) (Canis lupus familiaris, UniProt P56592); assay: Inhibition of NCMN-O-demethylation by CYP inhibitors in beagle dog liver microsomes; conditions: DLM; 10 µM NCMN; 100 µM furafylline, 10 µM sulfaphenazole, 200 µM troleandomycin, 500 µM 1-ABT
T2 sequence (P56592 2-512): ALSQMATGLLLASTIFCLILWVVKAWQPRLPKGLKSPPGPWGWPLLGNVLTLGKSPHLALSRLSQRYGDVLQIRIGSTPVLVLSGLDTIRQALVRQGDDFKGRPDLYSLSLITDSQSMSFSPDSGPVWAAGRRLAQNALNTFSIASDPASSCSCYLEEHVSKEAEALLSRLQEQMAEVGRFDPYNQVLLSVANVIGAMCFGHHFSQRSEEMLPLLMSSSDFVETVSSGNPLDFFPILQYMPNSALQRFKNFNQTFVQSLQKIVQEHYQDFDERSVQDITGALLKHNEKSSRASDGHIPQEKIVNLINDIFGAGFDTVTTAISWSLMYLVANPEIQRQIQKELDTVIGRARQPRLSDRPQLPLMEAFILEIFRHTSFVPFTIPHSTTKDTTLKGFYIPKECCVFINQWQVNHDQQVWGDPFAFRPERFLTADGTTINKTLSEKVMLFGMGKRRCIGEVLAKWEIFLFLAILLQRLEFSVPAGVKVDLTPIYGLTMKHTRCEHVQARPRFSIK

[5] = test system: CYP1A in minipig liver microsomes (PLM); assay: Inhibition of NCMN-O-demethylation by CYP inhibitors in minipig liver microsomes; conditions: PLM; 10 µM NCMN; 100 µM furafylline, 10 µM sulfaphenazole, 200 µM troleandomycin, 500 µM 1-ABT
[6] = molecular target: T3, CYP1A (NCMN O-demethylation) (Mus musculus, UniProt P00186); assay: Inhibition of NCMN-O-demethylation by CYP inhibitors in mouse liver microsomes; conditions: mouse, pH 7.4
T3 sequence (P00186 2-513): T1 sequence (P00186 2-513)

[7] = test system: CYP1A (NCMN O-demethylation); assay: Inhibition of NCMN-O-demethylation by CYP inhibitors in cynomolgus monkey liver microsomes; conditions: cynomolgus monkey, cynomolgus monkey liver microsomes, pH 7.4, probe NCMN (various concentrations; formation of NCHN)
[8] = test system: CYP1A (NCMN O-demethylation); assay: Inhibition of NCMN-O-demethylation by CYP inhibitors in rat liver microsomes; conditions: rat, rat liver microsomes, pH 7.4, probe NCMN (various concentrations; formation of NCHN)
[9] = molecular target: T4, CYP1A (NCMN O-demethylation) (Canis lupus familiaris, UniProt P56592); assay: Inhibition of NCMN-O-demethylation by CYP inhibitors in beagle dog liver microsomes; conditions: beagle, dog, pH 7.4
T4 sequence (P56592 2-512): T2 sequence (P56592 2-512)

[10] = test system: CYP1A (NCMN O-demethylation); assay: Inhibition of NCMN-O-demethylation by CYP inhibitors in minipig liver microsomes; conditions: minipig, pig, minipig liver microsomes, pH 7.4, probe NCMN (various concentrations; formation of NCHN)
[11] = molecular target: T5, CYP1A in human liver microsomes (HLM) (Homo sapiens, UniProt P05177); assay: Inhibition of NCMN-O-demethylation by CYP inhibitors in human liver microsomes; conditions: 10 µM NCMN, 100 µM furafylline, 10 µM sulfaphenazole, 200 µM troleandomycin, 500 µM 1-ABT
T5 sequence (P05177 2-516): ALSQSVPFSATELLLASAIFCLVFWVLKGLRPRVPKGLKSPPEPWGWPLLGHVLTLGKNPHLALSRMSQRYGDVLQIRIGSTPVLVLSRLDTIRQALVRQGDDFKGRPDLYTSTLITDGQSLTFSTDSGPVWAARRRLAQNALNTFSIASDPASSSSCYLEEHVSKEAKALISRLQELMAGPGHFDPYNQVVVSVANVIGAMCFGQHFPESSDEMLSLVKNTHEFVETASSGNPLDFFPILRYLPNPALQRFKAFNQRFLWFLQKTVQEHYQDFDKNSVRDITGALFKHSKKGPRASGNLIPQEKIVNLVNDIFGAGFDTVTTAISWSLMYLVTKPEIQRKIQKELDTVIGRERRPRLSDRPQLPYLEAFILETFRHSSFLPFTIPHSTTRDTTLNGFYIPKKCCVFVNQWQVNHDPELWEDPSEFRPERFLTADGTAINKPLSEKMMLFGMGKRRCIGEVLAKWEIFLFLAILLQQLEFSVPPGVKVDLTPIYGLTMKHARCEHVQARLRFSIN

[12] = substrate: COc1ccc2c3c(cccc13)C(=O)N(CCCC(=O)O)C2=O; assay: Kinetic analysis of NCMN-O-demethylation in cDNA-expressed rat CYP1A2; type: in vitro ADME; conditions: other: CYP1A2 (Rat), 100 nM; Michaelis-Menten; substrate 1-150 µM; pH 7.4; 37.0 °C
Procedure: (§1) The formation rates of NCHN were within the linear range of the protein concentration and incubation time. NCMN (1, 2.5, 5, 7.5, 10, 25, 50, 75, 100 and 150 µM) was incubated with HLM, MLM, RLM, DLM, PLM, CyLM (0.25mg protein/mL) as well as rat CYP1A2 (100 nM) for 30min. […] .

[13] = substrate: COc1ccc2c3c(cccc13)C(=O)N(CCCC(=O)O)C2=O; assay: Kinetic analysis of NCMN-O-demethylation in human CYP1A2; type: in vitro ADME; conditions: other: CYP1A2 (human); substrate 1-150 µM; pH 7.4; 37.0 °C
Procedure: as §1

Inhibition of the formation of NCHN [1]: potently inhibit
Inhibition of the formation of NCHN [2]: potently inhibit
Inhibition of the formation of NCHN [3]: potently inhibit
Inhibition of the formation of NCHN [4]: potently inhibit
Inhibition of the formation of NCHN [5]: potently inhibit
Molecule: Nn1nnc2ccccc21 [ABT, 1-Aminobenzotriazole]

Molecule: Cc1nc2c([nH]1)c(=O)n(C)c(=O)n2Cc1ccco1 [furafylline]
IC50 [6]: 5.73 µM
Inhibition of the formation of NCHN [1]: near completely
Inhibition of the formation of NCHN [2]: lower inhibitory effects
Inhibition of the formation of NCHN [3]: near completely
IC50 [9]: 26.8 µM
Inhibition of the formation of NCHN [4]: lower inhibitory effects
Inhibition of the formation of NCHN [5]: lower inhibitory effects

Inhibition of the formation of NCHN [1]: less than 25%
Inhibition of the formation of NCHN [11]: less than 25%
Inhibition of the formation of NCHN [2]: less than 25%
Inhibition of the formation of NCHN [3]: less than 25%
Inhibition of the formation of NCHN [4]: less than 25%
Inhibition of the formation of NCHN [5]: less than 25%
Molecule: Nc1ccc(S(=O)(=O)Nc2ccnn2-c2ccccc2)cc1 [sulfaphenazole]

B1: CYP1A2 (Rat) (Rattus norvegicus) (protein)
chain: MAFSQYISLAPELLLATAIFCLVFWVLRGTRTQVPKGLKSPPGPWGLPFIGHMLTLGKNPHLSLTKLSQQYGDVLQIRIGSTPVVVLSGLNTIKQALVKQGDDFKGRPDLYSFTLITNGKSMTFNPDSGPVWAARRRLAQDALKSFSIASDPTSVSSCYLEEHVSKEANHLISKFQKLMAEVGHFEPVNQVVESVANVIGAMCFGKNFPRKSEEMLNLVKSSKDFVENVTSGNAVDFFPVLRYLPNPALKRFKNFNDNFVLFLQKTVQEHYQDFNKNSIQDITGALFKHSENYKDNGGLIPQEKIVNIVNDIFGAGFETVTTAIFWSILLLVTEPKVQRKIHEELDTVIGRDRQPRLSDRPQLPYLEAFILEIYRYTSFVPFTIPHSTTRDTSLNGFHIPKECCIFINQWQVNHDEKQWKDPFVFRPERFLTNDNTAIDKTLSEKVMLFGLGKRRCIGEIPAKWEVFLFLAILLHQLEFTVPPGVKVDLTPSYGLTMKPRTCEHVQAWPRFSK
notes: purchased Research Institute for Liver Diseases (RILD, Shanghai, China) Lot.int066e1c
Km [12]: 4.04 ± 0.16 µM
kcat [12]: 7.48±0.05 nmol/min/nmol CYP

B2: CYP1A2 (human) (Homo sapiens) (protein)
chain: MALSQSVPFSATELLLASAIFCLVFWVLKGLRPRVPKGLKSPPEPWGWPLLGHVLTLGKNPHLALSRMSQRYGDVLQIRIGSTPVLVLSRLDTIRQALVRQGDDFKGRPDLYTSTLITDGQSLTFSTDSGPVWAARRRLAQNALNTFSIASDPASSSSCYLEEHVSKEAKALISRLQELMAGPGHFDPYNQVVVSVANVIGAMCFGQHFPESSDEMLSLVKNTHEFVETASSGNPLDFFPILRYLPNPALQRFKAFNQRFLWFLQKTVQEHYQDFDKNSVRDITGALFKHSKKGPRASGNLIPQEKIVNLVNDIFGAGFDTVTTAISWSLMYLVTKPEIQRKIQKELDTVIGRERRPRLSDRPQLPYLEAFILETFRHSSFLPFTIPHSTTRDTTLNGFYIPKKCCVFVNQWQVNHDPELWEDPSEFRPERFLTADGTAINKPLSEKMMLFGMGKRRCIGEVLAKWEIFLFLAILLQQLEFSVPPGVKVDLTPIYGLTMKHARCEHVQARLRFSIN
Km [13]: 9.80 ± 0.67 µM
kcat [13]: 32.06 ± 0.50 nmol/min/nmol CYP
